Experiments:
[1] = test system: plasma thrombin generation activity; parameters: method as in PMID 28097231; settings: human, oral administration (1 gram); cited from earlier work
wt MBP-PDI-b′xa′ = target: T1, wt MBP-PDI-b′xa′ (Homo sapiens, UniProt P07237); experiment: Insulin reduction assay; type: biochemical; settings: compound 100 μM, 1.5 μM protein, last read (100 min); WT alone 0.829
T1 construct: MBP-PDI-b′xa′(235–479); His-tag; made in house; host or cells: E. coli BL21 (DE3)
Experimental: (§1) The insulin reduction assay was performed to assess the enzymatic activity of PDI and its MBP-fused recombinant proteins. PDI can reduce insulin in the presence of dithiothreitol (DTT) along with increase in turbidity of the reaction mixture. We thus monitored spectrophotometrically the aggregation of reduced insulin through the increase of turbidity. The reductase activity was measured in 100 μL in presence of 600 μM insulin, 1.5 μM PDI and recombinant PDI proteins, 1 mM DTT, and with protein buffer (pH 7.4), at room temperature over 100 min by absorption at 650 nm. For inhibition assay, 100 μM of rutin, kaempferitrin, tiliroside and 2′-O-galloylhyperin or control buffer was added to the reaction system.
We further used the insulin reduction assay to measure the reductase activities of these site-directed MBP-PDI-b′xa′ mutants. This assay has typically good reproducibility as shown by a control experiment with three repetitions (Fig. S7 ^†). We found the PDI mutants maintained reductase activities in the presence of dithiothreitol (DTT). The H354A mutation lowered the reductase activity of wt MBP-PDI-b′xa′ (Fig. 3G) while other mutants had similar reductase activities with that of wt MBP-PDI-b′xa′ (Fig. 3C, F and H–J). Addition of rutin inhibited the reductase activities of both wt MBP-PDI-b′xa′ and the mutants (Fig. 3C and F–J). […] We quantified the inhibition of rutin on these MBP-PDI-b′xa′ mutants by measuring the increase of turbidity (OD650 at 100 min) upon addition of rutin (Fig. 3K).

full-length human PDI = full-length human PDI (Homo sapiens, UniProt P07237); experiment: Insulin reduction assay; type: biochemical; settings: compound 100 μM; for turbidity (OD650), raw kinetic read at 1:40:32: 1.5 μM protein, last read (100 min), PDI alone 1.125
Experimental: as §1

PDI = test system: PDI; parameters: method as in PMID 21121641; settings: read-out: inhibits PDI at; cited from earlier work

Chain of full-length human PDI (P07237 18-508): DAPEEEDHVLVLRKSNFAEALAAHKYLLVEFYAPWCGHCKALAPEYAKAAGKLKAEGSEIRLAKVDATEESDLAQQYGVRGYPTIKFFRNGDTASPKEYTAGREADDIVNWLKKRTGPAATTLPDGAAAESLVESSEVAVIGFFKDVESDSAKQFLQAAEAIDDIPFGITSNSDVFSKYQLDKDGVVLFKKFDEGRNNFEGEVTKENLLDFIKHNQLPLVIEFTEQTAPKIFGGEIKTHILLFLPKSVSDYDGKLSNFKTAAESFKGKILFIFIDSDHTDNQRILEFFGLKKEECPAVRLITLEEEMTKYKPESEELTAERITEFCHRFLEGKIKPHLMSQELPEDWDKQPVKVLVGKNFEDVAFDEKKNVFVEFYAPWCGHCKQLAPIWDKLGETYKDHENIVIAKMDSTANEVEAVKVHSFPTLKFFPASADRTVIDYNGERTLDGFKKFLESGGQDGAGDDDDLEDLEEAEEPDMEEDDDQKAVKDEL
T1 sequence (P07237 235-479): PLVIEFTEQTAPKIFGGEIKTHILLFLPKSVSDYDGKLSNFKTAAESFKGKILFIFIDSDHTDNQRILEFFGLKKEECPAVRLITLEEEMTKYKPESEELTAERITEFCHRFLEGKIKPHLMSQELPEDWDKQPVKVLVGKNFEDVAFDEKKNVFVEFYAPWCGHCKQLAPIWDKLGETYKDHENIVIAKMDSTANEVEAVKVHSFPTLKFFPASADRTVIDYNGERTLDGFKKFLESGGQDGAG

Row | SMILES | reduction of plasma thrombin generation activity [1] | turbidity (OD650), raw kinetic read at 1:40:32 (wt MBP-PDI-b′xa′) | turbidity (OD650), raw kinetic read at 1:40:32 (full-length human PDI) | inhibitory activity on reductase activity (full-length human PDI; full-length human PDI) | IC50 (PDI)
1 | O=c1c(O[C@@H]2O[C@H](CO)[C@@H](O)[C@H](O)[C@H]2O)c(-c2ccc(O)c(O)c2)oc2cc(O)cc(O)c12 [isoquercetin] | about half | – | – | – | –
2 | C[C@@H]1O[C@@H](Oc2cc(O)c3c(=O)c(O[C@@H]4O[C@@H](C)[C@H](O)[C@@H](O)[C@H]4O)c(-c4ccc(O)cc4)oc3c2)[C@H](O)[C@H](O)[C@H]1O [kaempferitrin] | – | 0.56 | 0.998 | smaller than that of rutin | –
3 | O=C(/C=C/c1ccc(O)cc1)OC[C@H]1O[C@@H](Oc2c(-c3ccc(O)cc3)oc3cc(O)cc(O)c3c2=O)[C@H](O)[C@@H](O)[C@@H]1O [tiliroside] | – | 0.5 | 0.925 | – | –
4 | C/C1=C/[C@H](O)C(C)(C)CCC/C(C)=C/C[C@H]1OC(=O)c1ccc(O)cc1 [juniferdin] | – | – | – | – | 156 nM

Source: article PMC9080521, “Molecular basis of rutin inhibition of protein disulfide isomerase (PDI) by combined in silico and experimental methods” (RSC Advances, 2018)
